Assay: UV-spectrum in ethanol
Type: physicochemical
Settings: for UV-spectrum: ε: at λmax, in M-1cm-1 (unit assumed)

UV-spectrum: λmax [nm]	UV-spectrum: ε	Compound
385	29591	CCN(CC)c1ccc(-n2nc3ccccc3n2)c(O)c1 [Example A-1]
346	29933	CCCCCC(=O)Nc1ccc(-n2nc3ccccc3n2)c(O)c1 [Example A-2]
